According to ChEMBL document CHEMBL1126225, “Potential mechanism-based inhibitors of proteolytic enzymes” (Bioorg Med Chem Lett, 1992):
One block for each compound: values may come before it.

Legend:
[1] = biological target: T1, Neutrophil elastase (Homo sapiens) (UniProt P08246); experiment: Compound was tested for the inhibition of human leukocyte elastase (HLE) by ratio of Kobs to that of KI
T1 sequence (whole entry): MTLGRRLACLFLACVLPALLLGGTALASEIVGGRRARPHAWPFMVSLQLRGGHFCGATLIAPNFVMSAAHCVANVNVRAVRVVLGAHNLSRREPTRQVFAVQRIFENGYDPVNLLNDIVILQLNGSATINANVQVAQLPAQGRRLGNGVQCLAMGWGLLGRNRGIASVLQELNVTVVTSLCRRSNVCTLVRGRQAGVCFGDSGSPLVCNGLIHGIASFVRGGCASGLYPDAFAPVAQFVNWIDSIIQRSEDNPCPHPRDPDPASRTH

Neutrophil elastase = biological target: T2, Neutrophil elastase (Homo sapiens, UniProt P08246); experiment: Compound was tested for the inhibition of human leukocyte elastase (HLE)
T2 sequence (P08246 whole entry): T1 sequence (whole entry)

[2] = biological target: T1, Neutrophil elastase (Homo sapiens); experiment: Compound was tested for the inhibition of human leukocyte elastase (HLE) by ratio of Kobs to that of KI; Insoluble

Structure (SMILES): CC(C)Cc1ccc(C(C)C(=O)CN2C(=O)CC(Cc3ccccc3)C2=O)cc1 (stereo not drawn)
K obs / 1 [1]: 45 M⁻¹ s⁻¹

Structure (SMILES): O=C(CN1C(=O)c2ccccc2S1(=O)=O)OCc1ccccc1
K obs / 1 [1]: 4 M⁻¹ s⁻¹

Structure (SMILES): CC(C)Cc1ccc(C(C)C(=O)CN2C(=O)c3ccccc3S2(=O)=O)cc1 (stereo not drawn)
K obs / 1 [1]: 160 M⁻¹ s⁻¹

Structure (SMILES): CC(C)Cc1ccc(C(C)C(=O)CN2C(=O)CC(CC(C)C)C2=O)cc1 (stereo not drawn)
K obs / 1 [1]: 16 M⁻¹ s⁻¹

Structure (SMILES): CC(C)C[C@H](N)C(=O)CN1C(=O)c2ccccc2C1=O
Ki (Neutrophil elastase): 17.5 µM

More lines, now with the values ahead:

K obs / 1 [1]: 420 M⁻¹ s⁻¹
Structure (SMILES): CC(C)C[C@H](NC(=O)OCc1ccccc1)C(=O)CN1C(=O)c2ccccc2S1(=O)=O

K obs / 1 [2]: Insoluble
Structure (SMILES): CC(C)C[C@H](NC(=O)OCc1ccccc1)C(=O)CN1C(=O)c2ccccc2C1=O

K obs / 1 [1]: 3 M⁻¹ s⁻¹
Structure (SMILES): CC(C)C[C@H](NC(=O)OCc1ccccc1)C(=O)CN1C(=O)CC(Cc2ccccc2)C1=O (stereo partly drawn)
